Key:
[1] = compared to cisplatin; cited from earlier work
rat L6 cells = test: number of rat L6 cells in flask with bar magnet after sprinkling Fe complex powder; assay type: cell-based; details: 48 hours, bar magnet in contact with flask
Excerpt: A group of samples shown on the left side is obtained by diluting a pyridine concentrate solution with water (double distilled water (DDW)), while a group of samples shown on the right side is obtained by diluting a pyridine iron complex saturated solution with pyridine. By changing the concentration of the iron complex in pyridine to, for example, ½ or 1/16 of the aforementioned concentration of the solution containing only pyridine, the MRI can detect changes in the concentration through images. Subsequently, when rat L6 cells were in 30% confluent state, Fe complex powder was sprinkled over a culture medium as much as required to enable visual observation of the Fe complex powder when being drawn to magnets. 48 hours later, the condition of the culture medium was photographed.
Referring to FIG. 22, “proximal to magnet” means within the projected area of the bottom of the rectangular flask in contact with the end face of the magnet, while “distal from magnet” means an area of the rectangular flask opposite the end face of the magnet. […] As a result, the magnetic drug and the system including the magnetic field generating means according to the present invention can concentrate the drug at the target affected part or tissues of an individual body.

[2] = magnetic guidance to mouse right kidney, SNR measured by MRI; assay type: in vivo; details: intravenous, 5 mg/ml (15 mM), right kidney approximately 0.3 T, 10 minutes
Excerpt: Next, another example of a guidance system according to the present invention will be explained. In this guidance system, a pair of magnets 230 and 232 located opposite to each other in a direction of gravitational force is supported by a stand 234 and a clamp 235, and a metal plate 236 is placed between the magnets as shown in FIG. 23. A locally uniform and strong magnet field can be generated by placing the metal plate, particularly an iron plate, between the pair of magnets.
The drug can be concentrated on the target tissues by placing the tissues of the individual body in this area of the magnetic field. The aforementioned metal complex (drug concentration: 5 mg/ml (15 mM)) was administered intravenously to a mouse (weight: approximately 30 g), the abdominal cavity of the mouse was opened, and the mouse was then placed on the iron plate so that its right kidney was positioned between the pair of magnets.
The magnets used were neodymium permanent magnets made by Shin-Etsu Chemical Co., Ltd. (product number: N50; residual magnetic flux density: 1.39-1.44 T). […] The magnetic field was applied to the mouse's right kidney; and 10 minutes later, the SNR of the right kidney as well as the left kidney […] (control) to which no magnetic field was applied was measured in T1 mode and T2 mode, using the MRI system.

Row | Compound | anticancer effect [1] | number of cells at area proximal to the magnet compared to area distal from the magnet (rat L6 cells) | amount of drug held in kidney tissues (SNR, T1 and T2 mode MRI) [2]
1 | CC(C[NH-])CC[NH-].O=C([O-])C1(C(=O)[O-])CCC1.[Pt+4] [NK121] | comparable to that of cisplatin | – | –
2 | Fe-salen | – | extremely low | larger amount of the drug could be held in the tissues of the right kidney (RT)
